According to EP4577640B1, “COMPOSITION COMPRISING AVENANTHRAMIDE C FOR INDUCING DIFFERENTIATION OF MESENCHYMAL STEM CELLS INTO CHONDROCYTES AND METHOD OF USING THE SAME” (Medeze Treasury Ptd. Ltd, priority 2023, dated 2025):

Legend:
[1] = system: Adipose-derived Mesenchymal Stem Cells (MSCs); assay: Immunofluorescence analysis of chondrocyte marker proteins on day 21 of in vitro chondrogenic differentiation (monolayer culture); assay type: cell-based, human
Procedure: (§1) In Vitro Chondrogenic Differentiation: In Vitro, chondrogenic differentiation using monolayer culture was performed. P4 MSCs were seeded in Gelatin-coated 24 well plates at 6000 cells/cm2. MSCs were expanded for 3 days before switching to the following Chondrocyte differentiation media (CDM) for 21 days (FIG. 1A).
(§2) Standard chondrocyte differentiation medium (STD) consists of DMEM Low Glucose (DMEM LG; Gibco #31600083), supplemented with 0.5 µg/ml hydrocortisone (Sigma-Aldrich #H0888), 1% Fetal bovine serum (FBS; Biowest #S181B), 1 X Insulin-Transferrin-Selenium-X (ITS-X; Gibo #51500056) or ITS+1 Liquid Media Supplement (Sigma-Aldrich #I2521), 10ng/ml recombinant human TGF-beta 3 (R&D Systems #8420-B3-025), […] L-ascorbate-2-phosphate (Sigma-Aldrich #49752), 1% Penicillin-Streptomycin (pen-strep; Gibco #15140122) and 500ng/ml Amphotericin B (Amp B; Gibco #15290026). Standard CDM (STD) will be used as a control (FIG. 1A).
Standard chondrocyte differentiation medium (STD) or CDM1 is then supplemented with 3 different treatment groups: 100 nM Avenanthramide C (Avn C; Sigma-Aldrich #36465) in CDM2, 500 ug/mL Chondroitin Sulfate (5 x CS; Sigma-Aldrich #C4384) in CDM3, and combination of 100 nM Avenanthramide C and 500 ug/mL Chondroitin Sulfate in CDM4 (FIG. 1A). […]

[2] = system: Adipose-derived Mesenchymal Stem Cells (MSCs); assay: RT-PCR mRNA expression analysis of chondrocyte markers relative to GAPDH; assay type: cell-based, human; settings: Avn C treatment alone
Procedure: as §1
as §2, with “1A). […]” for “1A).”
It is imperative to investigate the impact of Avn C on transcriptionally regulated chondrocyte properties, both when used individually and in conjunction with chondroitin sulfate at an optimal dosage of 500ug/mL (5X CS). To assess this, RT-PCR mRNA expression analysis is employed, which offers precise quantitative data on relative mRNA expressions. […]

[3] = system: mouse articular chondrocytes; settings: cited from earlier work

For `O=C(/C=C/c1ccc(O)c(O)c1)Nc1ccc(O)cc1C(=O)O` [Avn C, Avenanthramide C], the “expression of the COL2A1 protein (immunofluorescence signals)” value ([1]; 21-day treatment, CDM2 (STD + 100 nM Avn C) compared to CDM1 (STD)) was “significantly increasing the expression of the COL2A1 protein”, the “optimal concentration of Avn C for enhancing Collagen 2A1 protein signals” value ([1]; 21 days in STD with 0 nM, 10 nM, 100 nM, 1 uM, 10 uM, 50 uM Avn C, MSCs from a different individual) was “around 100 nM” and the “COL2A1 expression, transcriptional versus protein level” value [2] was “influences COL2A1 at protein levels (FIGS. 2 and 3) rather than at the transcriptional level”. The “expression of catabolic factors MMP-3, -12, and -13” value ([3]; induced by IL-1β in mouse articular chondrocytes) was “effectively suppressed the expression of catabolic factors” and the “IL-1β-mediated reduction of mature factors Collagen 2 (COL2A1) and SOX9” value ([3]; mouse articular chondrocytes) was “did not impact the IL-1β-mediated reduction of mature factors”.
